# Results published in ChEMBL document CHEMBL1145621, “Orally efficacious thrombin inhibitors with cyanofluorophenylacetamide as the P2 motif” (Bioorg Med Chem Lett, 2008).
# How the values were obtained:
# [1] = Cmax in po dosed dog; assay type: ADME, organism-based, Canis lupus familiaris; parameters: route oral; settings: in vivo
# [2] = Clearance in dog at 1 mg/kg, iv; assay type: ADME, organism-based, Canis lupus familiaris; parameters: dose 1 mg/kg, route intravenous; settings: in vivo
# [3] = Bioavailability in dog at 10 mg/kg, po; assay type: ADME, organism-based, Canis lupus familiaris; settings: in vivo
# [4] = Metabolic stability in dog liver microsomes after 10 mins; assay type: ADME, Canis lupus familiaris, Microsome; settings: read-out: Stability
# [5] = Half life in iv dosed dog; assay type: ADME, organism-based, Canis lupus familiaris; settings: in vivo
# [6] = Volume of distribution at steady state in dog at 1 mg/kg, iv; assay type: ADME, organism-based, Canis lupus familiaris; parameters: dose 1 mg/kg, route intravenous; settings: in vivo, read-out: Vdss
# [7] = Half life in rat at 30 mg/kg, po; assay type: ADME, organism-based; parameters: dose 30 mg/kg, route oral; settings: in vivo
# [8] = Clearance in rat at 3 mg/kg, iv; assay type: ADME, organism-based; parameters: dose 3 mg/kg, route intravenous; settings: in vivo
# [9] = Metabolic stability in rat liver microsomes after 10 mins; assay type: ADME, Microsome; settings: read-out: Stability
# [10] = Half life in rat at 3 mg/kg, iv; assay type: ADME, organism-based; parameters: dose 3 mg/kg, route intravenous; settings: in vivo
# [11] = Volume of distribution at steady state in rat at 3 mg/kg, iv; assay type: ADME, organism-based; parameters: dose 3 mg/kg, route intravenous; settings: in vivo, read-out: Vdss
# [12] = Half life in dog at 10 mg/kg, po; assay type: ADME, organism-based, Canis lupus familiaris; parameters: dose 10 mg/kg, route oral; settings: in vivo
# [13] = Bioavailability in rat at 30 mg/kg, po; assay type: ADME, organism-based; settings: in vivo
# [14] = Half life in dog at 1 mg/kg, iv; assay type: ADME, organism-based, Canis lupus familiaris; parameters: dose 1 mg/kg, route intravenous; settings: in vivo
# [15] = Cmax in dog at 10 mg/kg, po; assay type: ADME, organism-based, Canis lupus familiaris; parameters: dose 10 mg/kg, route oral; settings: in vivo
# [16] = Cmax in rat at 30 mg/kg, po; assay type: ADME, organism-based; parameters: dose 30 mg/kg, route oral; settings: in vivo
# [17] = Oral bioavailability in rat; assay type: ADME, organism-based; settings: in vivo
# [18] = Half life in rat at 2 mg/kg, iv; assay type: ADME, organism-based; parameters: dose 2 mg/kg, route intravenous; settings: in vivo
# [19] = Clearance in rat at 2 mg/kg, iv; assay type: ADME, organism-based; parameters: dose 2 mg/kg, route intravenous; settings: in vivo
# [20] = Volume of distribution at steady state in rat at 2 mg/kg, iv; assay type: ADME, organism-based; parameters: dose 2 mg/kg, route intravenous; settings: in vivo, read-out: Vdss
# [21] = Bioavailability in rat at 10 mg/kg, po; assay type: ADME, organism-based; settings: in vivo
# [22] = Metabolic stability in human liver microsomes after 10 mins; assay type: ADME, Microsome; settings: read-out: Stability
# [23] = Cmax in rat at 10 mg/kg, po; assay type: ADME, organism-based; parameters: dose 10 mg/kg, route oral; settings: in vivo
# [24] = Oral bioavailability in dog; assay type: ADME, organism-based, Canis lupus familiaris; settings: in vivo
SMILES,clearance [2],bioavailability [3],remaining at 10 min [4],half-life [5],Vd [6],remaining at 10 min [9],half-life [12],half-life [14],Cmax [15],bioavailability [17],further results
Cc1nc(N)ccc1CNC(=O)Cc1c(C#N)ccc(NCC(F)(F)c2ccccn2)c1F,34 mL/min/kg,26%,100%,1.1 h,,,,,,,Cmax [1]: 800 nM
CCCN(Cc1ccoc1)C(=O)c1cc(C)cc(OCC2(CON=C(N)N)CC2)c1,,,,4.4 h,,,,,,24%,

# Continued, in another order:
clearance [2],bioavailability [3],remaining at 10 min [4],half-life [5],Vd [6],remaining at 10 min [9],half-life [12],half-life [14],Cmax [15],bioavailability [17],SMILES,further results
18 mL/min/kg,45%,,,3.6 L/kg,> 95%,2.5 h,3.6 h,2800 nM,,Cc1ccc(C(F)(F)CNc2ccc(C#N)c(CC(=O)NCCONC(=N)N)c2F)nc1,half-life [7]: 2.5 h; clearance [8]: 30 mL/min/kg; half-life [10]: 1.3 h; Vd [11]: 2.3 L/kg; bioavailability [13]: 2%; Cmax [16]: 250 nM
13 mL/min/kg,49%,≥ 86%,,2.9 L/kg,> 95%,2.5 h,2.9 h,3500 nM,,N#Cc1ccc(NCC(F)(F)c2ccccn2)c(F)c1CC(=O)NCCONC(=N)N,half-life [18]: 1 h; clearance [19]: 67 mL/min/kg; Vd [20]: 6 L/kg; bioavailability [21]: 2%; remaining at 10 min [22]: ≥ 86%; Cmax [23]: 30 nM
,,,,,,,,,6%,Cc1cccc(S(=O)(=O)Nc2ccc(C)n(CC(=O)NCCONC(=N)N)c2=O)c1,bioavailability [24]: 24%
15 mL/min/kg,65%,,,2.9 L/kg,,3.2 h,2.8 h,3300 nM,,Cc1cccc(C(F)(F)CNc2ccc(C#N)c(CC(=O)NCCONC(=N)N)c2F)n1,
